US20150125515A1, “NOVEL SP-B & SP-C PEPTIDES, SYNTHETIC LUNG SURFACTANTS, AND USE THEREOF” (UNIVERSITY OF ROCHESTER, priority 2012, published 2015)
Bridges are numbered along the chain shown (N, C = ends). Roman numbers before positions name the chains, in order. Where no end group is shown, it is not given here.

Tests used:
[1] = Adsorption of surfactant compositions to the air-water interface (surface pressure vs time, Wilhelmy method); format: physicochemical; conditions: for adsorption compared with lung surfactant (CLSE in Table 7): 3% by weight peptide with 5:3:2 (molar ratio) DPPC:POPC:POPG; for adsorption, result in words: peptide 3% by weight with synthetic ester linked phospholipids 5:3:2 DPPC:POPC:POPG
Procedure: Surface activity of synthetic peptide/lipid surfactant compositions was assessed by either or both of the following methods: (1) measurement of the adsorption of surfactant compositions to the air-water interface as a function of time, and (2) measurement of overall dynamic surface activity on a pulsating bubble surfactometer (general methodological details of these two experimental techniques are described by Notter, Lung Surfactants: Basic Science and Clinical Applications, Marcel Dekker, Inc, New York (2000), which is hereby incorporated by reference in its entirety).
In adsorption studies, a given surfactant mixture was injected at time zero beneath the surface of a stirred surfactant-free subphase, and surface pressure (defined as surface tension lowering below that of the pure subphase) was measured as a function of time from the force on a hanging platinum slide (“Wilhelmy” method). By definition, higher surface pressure corresponds to lower surface tension (Notter, Lung Surfactants: Basic Science and Clinical Applications, Marcel Dekker, Inc, New York (2000)).

[2] = test system: ventilated rabbits with ARDS induced by saline lavage; test: Saline-lavage ventilated rabbit model of ARDS: arterial oxygenation and dynamic compliance; format: in vivo, New Zealand white rabbits; conditions: for Oxygenation and lung compliance after instillation (FIG. 2): SP-C mimics 3.0% by weight in 5:3:2 (weight ratio) DPPC:POPC:POPG; for Oxygenation and lung compliance after instillation (FIG. 2) / Oxygenation and lung compliance after instillation (FIG. 1): PBS pH 7.4, 35 mg/mL; for Oxygenation and lung compliance after instillation (FIG. 2) / relative order of pulmonary activity in terms of oxygenation and lung compliance / Oxygenation and lung compliance after instillation (FIG. 1) / relative order of pulmonary activity in terms of oxygenation / relative pulmonary activity with respect to lung compliance: intratracheal 100 mg/kg; for relative order of pulmonary activity in terms of oxygenation and lung compliance: SP-C mimics 3.0% by weight in 5:3:2 DPPC:POPC:POPG; for Oxygenation and lung compliance after instillation (FIG. 1): SP-B mimics 3.0% by weight in 5:3:2 (weight ratio) DPPC:POPC:POPG; for Oxygenation and lung compliance after instillation (FIG. 1) / relative order of pulmonary activity in terms of oxygenation / relative pulmonary activity with respect to lung compliance: over 120 min; for relative order of pulmonary activity in terms of oxygenation / relative pulmonary activity with respect to lung compliance: SP-B mimics 3.0% by weight in 5:3:2 DPPC:POPC:POPG
Procedure: Saline lavage produces surfactant deficiency, alveolar collapse and lung edema in ventilated rats and rabbits, and is a useful experimental model for human ARDS. A saline-lavage rabbit model for lung injury was thus used to compare synthetic surfactants, with lipids only as negative control. Restoration of lung function was assessed by serial monitoring of gas exchange and lung mechanics. Physiological activity results for selected synthetic SP-B peptides are shown below, and physiological activity results for selected synthetic SP-C peptides are included in following Example 8.
Animal experiments were performed following established protocols approved by the Animal Care and Use Committee at the Los Angeles Biomedical Research Institute at Harbor-UCLA Medical Center. […] In brief, experimental animals were commercially available young adult male New Zealand white rabbits whose respiratory function was followed during mechanical ventilation by measurements of serial arterial blood gases and pulmonary compliance over the first 2 hours after a standardized saline lavage protocol. For this timeframe of study, the model reflected a relatively pure state of surfactant insufficiency in animals with mature lungs. Saline lavage administration was performed after induction of anesthesia, insertion of a venous line in a marginal ear vein, endotracheal intubation and initiation of mechanical ventilation, muscle paralysis, and insertion of a carotid arterial line. Heart rate, arterial blood pressure and rectal temperature were measured continuously. After stabilization on the ventilator, saline lavage was performed with repeated intratracheal instillation and removal of 30 mL of normal saline until the PaO2 dropped below 100 mm Hg (average 3 lavages). Maintenance fluid was provided by a continuous infusion of Lactated Ringer's solution at a rate of 10 ml/kg/h. Edema fluid appearing in the trachea was removed by suctioning. When the PaO2 was stable at less than 100 mm Hg in saline lavaged animals, an experimental or control surfactant mixture was instilled into the trachea at a dose of 100 mg/kg body weight and a concentration of 35 mg/mL. The rabbits were ventilated using a Harvard volume-controlled animal ventilator (tidal volume 7.5 ml/kg, a positive end-expiratory pressure [PEEP] of 3 cm H2O, an inspiratory/expiratory ratio of 1:2, 100% oxygen, and a respiratory rate to maintain a PaCO2 at ˜40 mm Hg). Airway flow and pressures and tidal volume were monitored continuously with a pneumotachograph connected to the endotracheal tube and a pneumotach system. Arterial pH and blood gases were done every 15 minutes. Dynamic lung compliance was calculated by dividing tidal volume/kg body weight by changes in airway pressure (peak inspiratory pressure minus positive end-expiratory pressure) (mL/kg/cmH2O). Animals were sacrificed 2 h after surfactant administration with an overdose of pentobarbital. End-points are pulmonary gas exchange (arterial pH, PaCO2 and PaO2) and pulmonary mechanics (dynamic compliance, postmortem pressure-volume curves). Each treatment group consisted of n=4-9 animals.
The in vivo pulmonary activity of reduced MB DATK and SMB DATK was investigated in comparison with oxidized SMB and MB (positive controls) and lipids alone (negative control) over 120 min, following intratracheal instillation of these surfactants into ventilated rabbits with ARDS induced by saline lavage. Oxidized SMB and MB were used as positive controls, because these SP-B mimics previously indicated high in vivo surfactant activities equal to those of native, full-length porcine SP-B in ventilated rats with ARDS (Walther et al., “Critical Structural and Functional Roles for the N-terminal Insertion Sequence in Surfactant Protein B Analogs,” PLoS One 5:e8672 (2010), which is hereby incorporated by reference in its entirety). […]

LGIPCFPSSLKRLLIIVVV-CONH2 (chain 1 LGIPCFPSSLKRLLIIVVV-NH2; chain 2 LGIPCFPSSLKRLLIIVVV-NH2; disulfide I:5-II:5 (inferred)) [Mini-C dog cf_cys5 dimer]
adsorption compared with lung surfactant (CLSE in Table 7) [1]: equaling that of lung surfactant

LGIPFFPSSLKRLLIIVVV-CONH2 (LGIPFFPSSLKRLLIIVVV-NH2) [Mini-SPCff_dog]
adsorption compared with lung surfactant (CLSE in Table 7) [1]: equaling that of lung surfactant

GIPSSPVHLKRLLIVVVVVELIVKVIVGALLMGL (SP-C SS Ion Lock + L E20/K24) [SP-Css ion-lock]
adsorption, result in words [1]: substantial rapid adsorption
Oxygenation and lung compliance after instillation (FIG. 2) [2]: increased quickly
relative order of pulmonary activity in terms of oxygenation and lung compliance [2]: SP-C33˜SP-Css ion-lock>SP-Cff>Lipids alone

LGIPFFPSSLKRLLIILLL-CONH2 (LGIPFFPSSLKRLLIILLL-NH2) [Mini-SPCff_dog_leu]
adsorption compared with lung surfactant (CLSE in Table 7) [1]: equaling that of lung surfactant

IPSSPVHLKRLKLLLLLLLLILLLILGALLMGL (SP-c33) [previously reported SP-C peptide (Almlen et al. 2007)]
Oxygenation and lung compliance after instillation (FIG. 2) [2]: rapidly increased
relative order of pulmonary activity in terms of oxygenation and lung compliance [2]: SP-C33˜SP-Css ion-lock>SP-Cff>Lipids alone

FGIPFFPVHLKRLLILLLL-CONH2 (FGIPFFPVHLKRLLILLLL-NH2) [Mini-SPCff_2_leu]
adsorption compared with lung surfactant (CLSE in Table 7) [1]: equaling that of lung surfactant

IPSSPVHLKRLKLLKLLLEEILLKILGALLMGL (SP-C33SS Ion Lock2 K15/E19;E20/K24) [SP-C33ss_ion2]
adsorption, result in words [1]: substantial rapid adsorption

GIPFFPVHLKRLLIKVVVEELIVKVIVGALLMGL (SP-C FF Ion Lock2 K15/E19;E20/K24) [SP-C ion-lock2ff]
adsorption, result in words [1]: substantial rapid adsorption

CWLCRALIKRIQAMIDATKRMLPQLVCRLVLRCS (not fully specified (residues 1, 33, bridges); cysteine pairing not given here) [MB DATK_Red]
adsorption activity relative to that previously reported for MB without the DATK substitution ([1]; Table 10 conditions, 3% by weight with 5:3:2 DPPC:POPC:POPG): improved
Oxygenation and lung compliance after instillation (FIG. 1) [2]: increased quickly
relative order of pulmonary activity in terms of oxygenation [2]: reduced SMB DATK˜SMB_Ox˜MB_Ox>reduced MB DATK>Lipids alone
relative pulmonary activity with respect to lung compliance [2]: reduced SMB DATK>SMB_Ox˜reduced MB DATK˜MB_Ox>Lipids alone

FPIPLPYCWLCRALIKRIQAMIDATKRMLPQLVCRLVLRCS (not fully specified (residues 8, 40); cysteine pairing not given here) [SMB DATK_Red]
arterial oxygenation and dynamic compliance compared with reduced MB DATK ([2]; FIG. 1, 3.0% by weight in 5:3:2 DPPC:POPC:POPG): significantly higher
Oxygenation and lung compliance after instillation (FIG. 1) [2]: increased quickly
relative order of pulmonary activity in terms of oxygenation [2]: reduced SMB DATK˜SMB_Ox˜MB_Ox>reduced MB DATK>Lipids alone
relative pulmonary activity with respect to lung compliance [2]: reduced SMB DATK>SMB_Ox˜reduced MB DATK˜MB_Ox>Lipids alone
